Source: publication PMC7167818, “Addition of K22 Converts Spider Venom Peptide Pme2a from an Activator to an Inhibitor of NaV1.7” (Biomedicines, 2020)
Entries after “also recorded” stand apart in the source; their conditions may differ. Bridge positions count the residues as written; N and C are the ends. Peptide text beside a SMILES is read from it.

How the values were obtained:
hNaV1.7/β1 [1] = target: T1, hNaV1.7/β1 (Homo sapiens, UniProt Q15858); assay: Time constant of fast inactivation (τ) at hNaV1.7 (patch-clamp); format: cell-based; conditions: holding −90 mV, 50 ms pulse to −20 mV, n = 4 cells per data point
T1 sequence (Q07699 19-218): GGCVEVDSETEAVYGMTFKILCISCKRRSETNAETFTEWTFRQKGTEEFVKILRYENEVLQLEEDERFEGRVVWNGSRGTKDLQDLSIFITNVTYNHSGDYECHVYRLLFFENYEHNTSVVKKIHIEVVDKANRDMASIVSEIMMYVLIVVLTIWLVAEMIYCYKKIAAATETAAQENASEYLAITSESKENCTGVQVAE
T1 sequence (Q15858 whole entry): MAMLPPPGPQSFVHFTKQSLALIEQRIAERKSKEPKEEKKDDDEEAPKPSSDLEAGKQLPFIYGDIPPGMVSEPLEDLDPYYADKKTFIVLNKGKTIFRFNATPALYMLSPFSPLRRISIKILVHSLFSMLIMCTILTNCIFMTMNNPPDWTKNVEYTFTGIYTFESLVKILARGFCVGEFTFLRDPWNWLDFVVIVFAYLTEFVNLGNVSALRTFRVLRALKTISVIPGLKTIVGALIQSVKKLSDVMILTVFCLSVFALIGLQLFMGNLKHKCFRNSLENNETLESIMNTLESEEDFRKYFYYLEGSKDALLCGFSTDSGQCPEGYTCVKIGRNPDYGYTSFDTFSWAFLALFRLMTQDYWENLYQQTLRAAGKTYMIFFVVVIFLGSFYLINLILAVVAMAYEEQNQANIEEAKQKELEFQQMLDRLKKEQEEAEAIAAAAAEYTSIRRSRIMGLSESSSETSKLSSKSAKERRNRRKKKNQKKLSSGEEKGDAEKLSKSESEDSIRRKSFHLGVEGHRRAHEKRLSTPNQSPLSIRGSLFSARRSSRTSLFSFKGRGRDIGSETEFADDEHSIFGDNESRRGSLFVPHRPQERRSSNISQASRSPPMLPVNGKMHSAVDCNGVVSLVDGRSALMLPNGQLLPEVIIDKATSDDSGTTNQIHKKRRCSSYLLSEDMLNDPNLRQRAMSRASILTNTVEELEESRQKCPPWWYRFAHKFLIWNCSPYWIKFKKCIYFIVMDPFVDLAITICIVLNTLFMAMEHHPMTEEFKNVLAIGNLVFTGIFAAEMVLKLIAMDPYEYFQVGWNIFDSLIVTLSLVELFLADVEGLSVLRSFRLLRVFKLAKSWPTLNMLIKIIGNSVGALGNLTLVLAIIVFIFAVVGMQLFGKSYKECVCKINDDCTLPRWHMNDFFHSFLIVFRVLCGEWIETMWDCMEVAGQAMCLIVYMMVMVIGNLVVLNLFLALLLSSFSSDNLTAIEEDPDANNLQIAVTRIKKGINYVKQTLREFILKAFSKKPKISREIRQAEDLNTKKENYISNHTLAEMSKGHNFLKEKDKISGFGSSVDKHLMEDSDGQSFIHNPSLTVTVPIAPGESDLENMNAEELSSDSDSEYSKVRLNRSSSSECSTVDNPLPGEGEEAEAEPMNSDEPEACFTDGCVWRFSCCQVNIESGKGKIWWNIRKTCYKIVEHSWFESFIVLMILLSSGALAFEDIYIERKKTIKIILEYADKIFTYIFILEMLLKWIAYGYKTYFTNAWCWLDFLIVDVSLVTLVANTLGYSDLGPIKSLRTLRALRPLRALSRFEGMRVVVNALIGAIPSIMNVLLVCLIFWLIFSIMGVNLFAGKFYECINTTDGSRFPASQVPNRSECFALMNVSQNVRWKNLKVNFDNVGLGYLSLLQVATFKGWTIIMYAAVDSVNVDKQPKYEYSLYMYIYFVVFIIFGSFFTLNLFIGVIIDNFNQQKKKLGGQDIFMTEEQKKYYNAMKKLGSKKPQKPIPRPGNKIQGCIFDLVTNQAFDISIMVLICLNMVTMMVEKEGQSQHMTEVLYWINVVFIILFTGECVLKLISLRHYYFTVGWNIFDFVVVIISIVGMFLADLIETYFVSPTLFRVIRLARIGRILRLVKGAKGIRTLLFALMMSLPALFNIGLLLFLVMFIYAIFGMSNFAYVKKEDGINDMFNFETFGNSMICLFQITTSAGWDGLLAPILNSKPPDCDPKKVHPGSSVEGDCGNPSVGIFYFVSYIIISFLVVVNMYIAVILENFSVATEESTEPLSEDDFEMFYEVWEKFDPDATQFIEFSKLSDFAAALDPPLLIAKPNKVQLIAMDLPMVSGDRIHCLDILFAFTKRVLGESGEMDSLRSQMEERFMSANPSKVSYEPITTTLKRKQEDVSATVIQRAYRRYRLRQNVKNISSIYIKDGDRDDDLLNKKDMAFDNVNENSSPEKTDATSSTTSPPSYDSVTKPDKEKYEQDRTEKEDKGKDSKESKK
Description: (§1) Human Embryonic Kidney (HEK) 293 cells stably expressing human NaV1.7/β1 (SB Drug Discovery, Glasgow, UK) were cultured in Minimum Essential Medium (MEM) supplemented with 10% fetal bovine serum (FBS), 2 mM L-glutamine, and the selection antibiotics G-418 (0.6 mg/mL) and blasticidin (4 μg/mL), as recommended by the manufacturer. Chinese Hamster Ovary (CHO) cells stably expressing human NaV1.8/β3 in a tetracycline-inducible system (ChanTest, Cleveland, OH, USA) were cultured in MEM supplemented with 10% FBS and 2 mM L-glutamine. Expression of hNaV1.8 was induced by the addition of tetracycline (1 μg/mL) for 48–72 h prior to assays. HEK293 cells stably expressing rat transient receptor potential vanilloid 1 (TRPV1) were cultured in Dulbecco’s Modified Eagle Medium (DMEM) containing 10% FBS under selection with hygromycin B (100 μg/mL), generated as previously described. Cells were grown in an incubator at 37 °C with 5% CO2 and passaged every 3–4 days (at 70%–80% confluency) using TrypLE Express (Thermo Fisher Scientific, Scoresby, VIC, Australia).
(§2) Whole-cell patch-clamp experiments in NaV1.7-HEK cells and NaV1.8-CHO cells were performed on a QPatch-16 automated electrophysiology platform (Sophion Bioscience, Ballerup, Denmark) as previously described. The extracellular solution contained in mM: NaCl 140, KCl 4, CaCl2 2, MgCl2 1, HEPES 10 and glucose 10; pH 7.4; osmolarity 305 mOsm. The intracellular solution contained in mM: CsF 140, EGTA/CsOH 1/5, HEPES 10 and NaCl 10; pH 7.3 with CsOH; osmolarity 320 mOsm. Concentration–response curves were acquired using a holding potential of −90 mV and a 50 ms pulse to −20 mV (for NaV1.7) or +10 mV (for NaV1.8) every 20 s (0.05 Hz). Peptides were diluted in extracellular solution with 0.1% BSA and each peptide concentration was incubated for 5 min. Peak current was normalized to buffer control. The time constant of fast inactivation (τ) was computed by fitting the current decay traces with a single exponential function using the QPatch Assay Software 5.6 (Sophion). […]
(§3) Data were plotted and analysed using GraphPad Prism, version 8.2.0. […]

hNaV1.7/β1 [2] = target: T1, hNaV1.7/β1; assay: Voltage dependence of activation at hNaV1.7 (conductance-voltage curves, patch-clamp); format: cell-based; conditions: 1 μM, 5 min incubation; holding −90 mV, 500 ms steps −110 to +55 mV in 5 mV increments; Boltzmann fit; n = 3–6 cells per data point
Description: as §1
(§4) Whole-cell patch-clamp experiments in NaV1.7-HEK cells and NaV1.8-CHO cells were performed on a QPatch-16 automated electrophysiology platform (Sophion Bioscience, Ballerup, Denmark) as previously described. […]
as §3

hNaV1.8/β3 = assay: Whole-cell automated patch-clamp, peak current at hNaV1.8; format: cell-based, human; conditions: 10 μM; 5 min incubation; QPatch-16; holding −90 mV, 50 ms pulse to +10 mV every 20 s; 0.1% BSA; mean ± SEM
Description: as §1, §4, §3

rTRPV1 = target: T2, rTRPV1 (Rattus norvegicus, UniProt O35433); assay: Calcium responses in TRPV1-HEK cells (FLIPR); format: cell-based
T2 construct: expressed in transfected cells
T2 sequence (O35433 whole entry): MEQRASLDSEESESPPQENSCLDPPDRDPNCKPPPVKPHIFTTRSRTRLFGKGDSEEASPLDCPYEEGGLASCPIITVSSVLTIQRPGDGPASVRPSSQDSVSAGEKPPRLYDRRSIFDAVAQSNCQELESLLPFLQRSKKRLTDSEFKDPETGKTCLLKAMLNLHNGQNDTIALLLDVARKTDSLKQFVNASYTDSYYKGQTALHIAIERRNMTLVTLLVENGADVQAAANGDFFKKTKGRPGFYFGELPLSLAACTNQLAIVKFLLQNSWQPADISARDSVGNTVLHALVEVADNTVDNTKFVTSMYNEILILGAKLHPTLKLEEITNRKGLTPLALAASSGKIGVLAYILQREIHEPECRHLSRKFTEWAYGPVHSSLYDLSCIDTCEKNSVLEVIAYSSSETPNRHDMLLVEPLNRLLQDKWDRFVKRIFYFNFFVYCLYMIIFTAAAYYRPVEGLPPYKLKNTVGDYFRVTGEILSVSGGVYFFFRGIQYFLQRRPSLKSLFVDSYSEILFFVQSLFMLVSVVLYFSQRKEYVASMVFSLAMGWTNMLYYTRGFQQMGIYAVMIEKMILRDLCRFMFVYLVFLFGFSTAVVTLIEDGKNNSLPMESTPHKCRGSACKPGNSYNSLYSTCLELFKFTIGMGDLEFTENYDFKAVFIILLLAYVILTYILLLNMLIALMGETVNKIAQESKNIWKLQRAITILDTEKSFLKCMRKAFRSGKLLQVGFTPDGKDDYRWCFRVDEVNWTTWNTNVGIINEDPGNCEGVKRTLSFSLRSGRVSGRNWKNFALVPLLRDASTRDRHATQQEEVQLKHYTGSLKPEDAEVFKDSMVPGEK
Description: HEK293 cells stably expressing rat transient receptor potential vanilloid 1 (TRPV1) were cultured in Dulbecco’s Modified Eagle Medium (DMEM) containing 10% FBS under selection with hygromycin B (100 μg/mL), generated as previously described [16]. Cells were grown in an incubator at 37 °C with 5% CO2 and passaged every 3–4 days (at 70%–80% confluency) using TrypLE Express (Thermo Fisher Scientific, Scoresby, VIC, Australia).
HEK cells stably expressing rTRPV1 were plated 48 h before the assay on 384-well black-walled imaging plates coated with poly D-lysine (ViewPlate-384, Perkin Elmer, Victoria, Australia) at a density of 10,000–15,000 cells/well and loaded with Calcium 4 no-wash dye (Molecular Devices) diluted in PSS and incubated for 30 min at 37 °C. […] Changes in fluorescence were assessed using the FLIPR^TETRA (excitation 470–495 nm, emission 515–575 nm) every 1 s for 300 s after the addition of compounds. Fluorescence responses were quantified by the maximum increase in fluorescence calculated using ScreenWorks 3.2.0.14.
Data were plotted and analysed using GraphPad Prism, version 8.2.0. For concentration–response curves, a four-parameter Hill equation with variable Hill coefficient was fitted to the data. Data are presented as the mean ± SEM.

hNaV1.7/β1 [3] = target: T1, hNaV1.7/β1; assay: Whole-cell automated patch-clamp, peak current at hNaV1.7; format: cell-based
Description: as §1, §2, §3

## CSCC[C@@H]1NC(=O)[C@H](Cc2ccccc2)NC(=O)[C@H](CCCCN)NC(=O)[C@H]([C@@H](C)O)NC(=O)[C@@H](NC(=O)CN)CSSC[C@@H]2NC(=O)[C@@H]3CSSC[C@@H](C(=O)NCC(=O)N[C@@H](Cc4c[nH]c5ccccc45)C(=O)N[C@@H](CC(=O)O)C(=O)NCC(=O)N[C@H](C(=O)N[C@@H](Cc4ccccc4)C(N)=O)[C@@H](C)O)NC(=O)[C@H](Cc4c[nH]c5ccccc45)NC(=O)[C@H](CCCCN)NC(=O)[C@H](Cc4ccc(O)cc4)NC(=O)[C@H](CCCCN)NC(=O)[C@H](Cc4ccc(O)cc4)NC(=O)[C@H](CCCCN)NC(=O)[C@H](CSSC[C@H](NC(=O)[C@H](CO)NC(=O)CNC1=O)C(=O)N[C@@H](CCCCN)C(=O)N[C@@H]([C@@H](C)O)C(=O)N[C@@H](CC(=O)O)C(=O)N[C@@H](C)C(=O)N[C@@H](CC(=O)O)C(=O)N3)NC(=O)[C@H](CCC(=O)O)NC(=O)[C@H](CC(C)C)NC(=O)[C@H](Cc1c[nH]cn1)NC(=O)[C@H](CCC(=O)O)NC2=O [[+22K]Pme2a] (H-GCTKFMGSCKTDADCCEHLECKYKYKWCGWDGTF-NH2; disulfide 2-16, 9-21, 15-28 (inferred); N-terminus assumed)
hNaV1.7/β1 [1]
  effect on fast inactivation: removed the effect of the native peptide on fast inactivation; also recorded: without the delay in fast activation seen with the native peptide

## CSCC[C@@H]1NC(=O)[C@H](CCCCN)NC(=O)[C@@H]2CSSC[C@@H]3NC(=O)CNC(=O)CNC(=O)[C@H](CC(C)C)NC(=O)[C@H](Cc4ccccc4)NC(=O)[C@H](Cc4ccc(O)cc4)NC(=O)[C@H](CCCNC(=N)N)NC(=O)[C@@H](NC(=O)CNC(=O)CN)CSSC[C@H](NC(=O)[C@H](CSSC[C@@H](C(=O)N[C@@H](C)C(=O)N[C@@H](Cc4c[nH]c5ccccc45)C(=O)N[C@@H](CC(=O)O)C(=O)NCC(=O)N[C@H](C(=O)N[C@@H](Cc4ccccc4)C(N)=O)[C@@H](C)O)NC(=O)[C@H](Cc4ccc(O)cc4)NC(=O)[C@H](CC(N)=O)NC(=O)[C@H](CC(C)C)NC(=O)CNC1=O)NC(=O)[C@H](CC(=O)O)NC(=O)[C@H](CO)NC(=O)[C@H](Cc1c[nH]cn1)NC(=O)[C@H](CCC(=O)O)NC(=O)[C@H](CO)NC3=O)C(=O)N[C@@H](CCC(=O)O)C(=O)N[C@@H](Cc1c[nH]cn1)C(=O)N[C@@H](CC(C)C)C(=O)N[C@@H](CCCNC(=N)N)C(=O)N2 [Pme1a] (H-GGCRYFLGGCSEHSDCCEHLRCKMGLNYCAWDGTF-NH2; disulfide 3-17, 10-22, 16-29 (inferred); N-terminus assumed)
hNaV1.7/β1 [2]
  shift of V1/2 of voltage dependence of activation (Δ): +11.6 mV
hNaV1.8/β3
  inhibition of peak current at NaV1.8: 21 ± 2%
rTRPV1; rTRPV1-HEK293, Calcium 4 dye, up to 30 μM, n = 3–5 wells per data point
  activity on TRPV1: no activity
hNaV1.7/β1 [3]; 5 min incubation per concentration, QPatch-16, holding −90 mV, 50 ms pulse to −20 mV every 20 s, 0.1% BSA, mean ± SEM, n = 3–6 cells per data point, read-out: IC50 (inhibition of NaV1.7 peak current)
  IC50: 0.334 ± 0.114 µM

## CSCC[C@@H]1NC(=O)[C@H](Cc2ccccc2)NC(=O)[C@H](CCCCN)NC(=O)[C@H]([C@@H](C)O)NC(=O)[C@@H](NC(=O)CN)CSSC[C@@H]2NC(=O)[C@@H]3CSSC[C@@H](C(=O)NCC(=O)N[C@@H](Cc4c[nH]c5ccccc45)C(=O)N[C@@H](CC(=O)O)C(=O)NCC(=O)N[C@H](C(=O)N[C@@H](Cc4ccccc4)C(N)=O)[C@@H](C)O)NC(=O)[C@H](Cc4c[nH]c5ccccc45)NC(=O)[C@H](CCCCN)NC(=O)[C@H](Cc4ccc(O)cc4)NC(=O)[C@H](CCCCN)NC(=O)[C@H](Cc4ccc(O)cc4)NC(=O)[C@H](CSSC[C@H](NC(=O)[C@H](CO)NC(=O)CNC1=O)C(=O)N[C@@H](CCCCN)C(=O)N[C@@H]([C@@H](C)O)C(=O)N[C@@H](CC(=O)O)C(=O)N[C@@H](C)C(=O)N[C@@H](CC(=O)O)C(=O)N3)NC(=O)[C@H](CCC(=O)O)NC(=O)[C@H](CC(C)C)NC(=O)[C@H](Cc1c[nH]cn1)NC(=O)[C@H](CCC(=O)O)NC2=O [Pme2a] (H-GCTKFMGSCKTDADCCEHLECYKYKWCGWDGTF-NH2; disulfide 2-16, 9-21, 15-27 (inferred); N-terminus assumed)
hNaV1.8/β3
  inhibition of peak current at NaV1.8: 22 ± 4%
rTRPV1; rTRPV1-HEK293, data not shown, concentration not given
  activity at TRPV1: no activity
hNaV1.7/β1 [1]; 5 min incubation, τ from single exponential fit, read-out: estimated EC50 (delay of fast inactivation)
  EC50: > 10 µM
hNaV1.7/β1 [1]
  effect on fast inactivation: concentration-dependently delaying-fast inactivation; also recorded: concentration-dependently increases the time constant of fast inactivation (τ)
hNaV1.7/β1 [3]; abstract, QPatch-16, holding −90 mV, 50 ms pulse to −20 mV, read-out: EC50 as given in abstract: delays fast inactivation and inhibits NaV1.7 peak current
  EC50: > 10 µM
hNaV1.7/β1 [3]; authors' summary in discussion
  pharmacology at NaV1.7 (activator / inhibitor): NaV1.7 channel activator
